Values quoted from earlier work in patent US7605257B2, “Processes for preparing water-soluble polyethylene glycol conjugates of macrolide immunosuppressants” (Wyeth, priority 2006, dated 2009).

Tested on: various solid tumors
Settings: typical IC50, inhibitor of tumor growth; read-out: IC50 against various solid tumors

- IC50: < 50 nM
Compound: CO[C@H]1C[C@@H]2CC[C@@H](C)[C@@](O)(O2)C(=O)C(=O)N2CCCC[C@H]2C(=O)O[C@H]([C@H](C)C[C@@H]2CC[C@@H](O)[C@H](OC)C2)CC(=O)[C@H](C)/C=C(\C)[C@@H](O)[C@@H](OC)C(=O)[C@H](C)C[C@H](C)/C=C/C=C/C=C/1C [Rapamycin, rapamycin]
